Data from patent US20250034170A1, “SMALL MOLECULE MODULATORS OF GLUCOCEREBROSIDASE ACTIVITY AND USES THEREOF” (Vanqua Bio, Inc., priority 2021, published 2025).

Target: T1, GCase (Homo sapiens, UniProt P04062)
T1 construct: endogenous in cells; host or cells: HeLa cells
T1 sequence (P04062 40-536): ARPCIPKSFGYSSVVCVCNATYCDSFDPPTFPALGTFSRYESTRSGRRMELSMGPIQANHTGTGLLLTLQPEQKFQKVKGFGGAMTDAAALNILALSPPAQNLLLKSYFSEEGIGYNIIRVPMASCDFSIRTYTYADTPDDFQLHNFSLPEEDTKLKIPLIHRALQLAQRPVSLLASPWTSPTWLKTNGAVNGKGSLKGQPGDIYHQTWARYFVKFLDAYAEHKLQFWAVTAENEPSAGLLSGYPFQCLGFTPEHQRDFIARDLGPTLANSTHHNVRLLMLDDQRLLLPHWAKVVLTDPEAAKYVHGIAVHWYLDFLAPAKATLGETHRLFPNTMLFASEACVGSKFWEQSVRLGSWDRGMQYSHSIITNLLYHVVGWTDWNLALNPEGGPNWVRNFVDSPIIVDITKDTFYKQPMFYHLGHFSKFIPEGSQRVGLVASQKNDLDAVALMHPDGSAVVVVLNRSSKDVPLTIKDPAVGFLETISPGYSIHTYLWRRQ
Assay: activation of GCase in a live cell PFB assay in HELA cells
Type: cell-based
Settings: EC50 given as range classes
Procedure: Exemplary compounds were evaluated for activation of GCase in a live cell PFB assay in HELA cells (essentially as described in Ysselstein et al., “LRRK2 kinase activity regulates lysosomal glucocerebrosidase in neurons derived from Parkinson's disease patients” Nature Communications (2019) 10:5570). […] EC50 ranges: A: <10 μM; B: >10-50 μM; C: >50-100 μM; D: >100 μM.

Row | SMILES | EC50 [µM]
1 | Cc1nc(N2CCC3(CC2)CCN(c2cnc4cnn(CC(F)F)c4n2)C3)cc(C(F)(F)F)n1 [Cmpd 579] | 10 to 50
2 | Cc1nc(N2CCC3(CC2)CCN(c2cnc4cnn(CC(F)(F)F)c4n2)C3)cc(C(F)(F)F)n1 [Cmpd 580] | 10 to 50
3 | Cc1nc(N2CCC3(CC2)CCN(c2ncc4cnn(CC(F)F)c4n2)C3)cc(C(F)(F)F)n1 [Cmpd 581] | 10 to 50
4 | Cc1nc(N2CCC3(CC2)CCN(c2cnc4cnn(C5COC5)c4n2)C3)cc(C(F)(F)F)n1 [Cmpd 583] | > 100
5 | Cc1nc(N2CCC3(CC2)CN(c2ncc4cnn(CC(F)F)c4n2)C3)cc(C(F)(F)F)n1 [Cmpd 586] | 10 to 50
6 | Cc1cc(N2CC3(CCN(c4ncc5cnn(C6COC6)c5n4)C3)C2)nc(C(F)(F)F)n1 [Cmpd 590] | 10 to 50
7 | Cc1ncc(N2CC3(CCN(c4ncc5c(C)nn(CC(F)F)c5n4)C3)C2)c(C(F)(F)F)n1 [Cmpd 591] | < 10
8 | Cc1ncc(N2CC3(CCN(c4cnc5cnn(CC(F)F)c5n4)C3)C2)c(C(F)(F)F)n1 [Cmpd 592] | > 100
9 | Cc1ncc(N2CC3(CCN(c4cnc5c(C)nn(CC(F)F)c5n4)C3)C2)c(C(F)(F)F)n1 [Cmpd 593] | > 100
10 | Cc1ncc(N2CC3(CCN(c4cnc5cnn(CC(F)(F)F)c5n4)C3)C2)c(C(F)(F)F)n1 [Cmpd 594] | > 100
11 | Cc1ncc(N2CC3(CCN(c4ncc5cnn(CC(F)F)c5n4)C3)C2)c(C(F)(F)F)n1 [Cmpd 595] | < 10
12 | Cc1ncc(N2CC3(CCN(c4ncc5cnn(CC(F)(F)F)c5n4)C3)C2)c(C(F)(F)F)n1 [Cmpd 596] | < 10
13 | Cc1ncc(N2CC3(CCN(c4cnc5cnn(C6COC6)c5n4)C3)C2)c(C(F)(F)F)n1 [Cmpd 597] | > 100
14 | Cc1ncc(N2CC3(CCN(c4ncc5cnn(C6COC6)c5n4)C3)C2)c(C(F)(F)F)n1 [Cmpd 598] | 10 to 50
15 | Cc1ncc(N2CC3(CCN(c4cnc5c(C)nn(C6COC6)c5n4)C3)C2)c(C(F)(F)F)n1 [Cmpd 599] | 10 to 50
16 | Cc1ncc(N2CC3(CCN(c4ncc5c(C)nn(C6COC6)c5n4)C3)C2)c(C(F)(F)F)n1 [Cmpd 600] | 50 to 100
17 | Cc1ncc(N2CCC3(CCN(c4cnc5cnn(CC(F)F)c5n4)CC3)C2)c(C(F)(F)F)n1 [Cmpd 601] | < 10
18 | Cc1ncc(N2CCC3(CCN(c4cnc5c(C)nn(CC(F)F)c5n4)CC3)C2)c(C(F)(F)F)n1 [Cmpd 602] | 10 to 50
19 | Cc1nn(CC(F)(F)F)c2nc(N3CCC4(CCN(c5cnc(C(F)(F)F)nc5)C4)C3)cnc12 (stereo not shown) [Cmpd 603] | 10 to 50
20 | Cc1nn(CC(F)(F)F)c2nc(N3CCC4(CN(c5cnc(C(F)(F)F)nc5)C4)C3)cnc12 [Cmpd 605] | > 100
21 | Cc1ncc(N2CC3(CCN(c4cnc5c(C)nn(CC(F)(F)F)c5n4)C3)C2)c(C(F)(F)F)n1 [Cmpd 606] | 50 to 100
22 | Cc1nc(N2CCC3(CCN(c4cnc5c(C)nn(CC(F)(F)F)c5n4)CC3)C2)cc(C(F)(F)F)n1 [Cmpd 611] | > 100
23 | Cc1nc(N2CC3(CCN(c4cc5c(cn4)c(C)nn5CC(F)F)CC3)CC2=O)cc(C(F)(F)F)n1 [Cmpd 614] | 10 to 50
24 | Cc1nn(CC(F)(F)F)c2nc(N3CCC4(CCN(c5cnc(C(F)(F)F)nc5)C4)C3)ncc12 (stereo not shown) [Cmpd 615] | 10 to 50
25 | Cc1nc(N2CCC3(CCN(c4ncc5c(C)nn(CC(F)(F)F)c5n4)CC3)C2)cc(C(F)(F)F)n1 [Cmpd 619] | 10 to 50
26 | Cc1ncc(N2CC3(CCN(c4ncc5c(C)nn(CC(F)(F)F)c5n4)C3)C2)c(C(F)(F)F)n1 [Cmpd 620] | 10 to 50
27 | Cc1nc(N2CC3(CCN(c4ccc5cnn(CC(F)F)c5n4)CC3)CC2=O)cc(C(F)(F)F)n1 [Cmpd 627] | < 10
28 | Cc1nc(N2CC3(CCN(c4ccc5c(C)nn(CC(F)F)c5n4)CC3)CC2=O)cc(C(F)(F)F)n1 [Cmpd 628] | < 10

The remaining lines, values ahead:

Row | EC50 [µM] | SMILES
29 | 10 to 50 | Cc1nc(N2CCC3(CC2)CCN(c2cnc4c(C)nn(CC(F)F)c4n2)C3)cc(C(F)(F)F)n1 [Cmpd 582]
30 | 10 to 50 | Cc1nc(N2CCC3(CC2)CN(c2cnc4cnn(C5COC5)c4n2)C3)cc(C(F)(F)F)n1 [Cmpd 584]
31 | < 10 | Cc1nc(N2CCC3(CC2)CN(c2cnc4c(C)nn(CC(F)F)c4n2)C3)cc(C(F)(F)F)n1 [Cmpd 585]
32 | 10 to 50 | Cc1nc(N2CCC3(CC2)CN(c2cnc4cnn(CC(F)(F)F)c4n2)C3)cc(C(F)(F)F)n1 [Cmpd 587]
33 | < 10 | Cc1nc(N2CCC3(CC2)CN(c2cnc4cnn(CC(F)F)c4n2)C3)cc(C(F)(F)F)n1 [Cmpd 588]
34 | 10 to 50 | Cc1nc(N2CC3(CCN(c4ncc5cnn(C6COC6)c5n4)C3)C2)cc(C(F)(F)F)n1 [Cmpd 589]
35 | > 100 | Cc1nc(N2CCC3(CCN(c4cnc5c(C)nn(CC(F)(F)F)c5n4)C3)C2)cc(C(F)(F)F)n1 (stereo not shown) [Cmpd 604]
36 | 10 to 50 | Cc1cc(N2CC3(CCN(c4cnc5c(C)nn(CC(F)(F)F)c5n4)C3)C2)nc(C(F)(F)F)n1 [Cmpd 607]
37 | 50 to 100 | Cc1nc(N2CC3(CCN(c4cnc5c(C)nn(CC(F)(F)F)c5n4)C3)C2)cc(C(F)(F)F)n1 [Cmpd 608]
38 | 10 to 50 | Cc1nc(N2CCC3(C2)CN(c2cnc4c(C)nn(CC(F)(F)F)c4n2)C3)cc(C(F)(F)F)n1 [Cmpd 609]
39 | < 10 | Cc1nc(N2CC3(CCN(c4cnc5c(C)nn(CC(F)(F)F)c5n4)CC3)C2)cc(C(F)(F)F)n1 [Cmpd 610]
40 | 50 to 100 | Cc1nc(N2CC3(CCN(c4cc5c(cn4)c(C)nn5CC(F)F)C3)C2)cc(C(F)(F)F)n1 [Cmpd 612]
41 | < 10 | Cc1nc(N2CC3(CCN(c4cc5c(cn4)c(C)nn5CC(F)F)CC3)C2)cc(C(F)(F)F)n1 [Cmpd 613]
42 | 10 to 50 | Cc1nc(N2CCC3(CCN(c4ncc5c(C)nn(CC(F)(F)F)c5n4)C3)C2)cc(C(F)(F)F)n1 (stereo not shown) [Cmpd 616]
43 | 10 to 50 | Cc1nc(N2CCC3(C2)CN(c2ncc4c(C)nn(CC(F)(F)F)c4n2)C3)cc(C(F)(F)F)n1 [Cmpd 617]
44 | 10 to 50 | Cc1nc(N2CC3(CCN(c4ncc5c(C)nn(CC(F)(F)F)c5n4)CC3)C2)cc(C(F)(F)F)n1 [Cmpd 618]
45 | 10 to 50 | Cc1nc(N2CC3(CCN(c4ccc5cnn(CC(F)F)c5n4)C3)C2)cc(C(F)(F)F)n1 [Cmpd 621]
46 | 10 to 50 | Cc1nc(N2CC3(CCN(c4ccc5c(C)nn(CC(F)F)c5n4)C3)C2)cc(C(F)(F)F)n1 [Cmpd 622]
47 | < 10 | Cc1nc(N2CC3(CCN(c4ccc5cnn(CC(F)F)c5n4)CC3)C2)cc(C(F)(F)F)n1 [Cmpd 623]
48 | < 10 | Cc1nc(N2CC3(CCN(c4ccc5c(C)nn(CC(F)F)c5n4)CC3)C2)cc(C(F)(F)F)n1 [Cmpd 624]
49 | < 10 | Cc1nc(N2CCC3(CCN(c4ccc5cnn(CC(F)F)c5n4)CC3)C2)cc(C(F)(F)F)n1 [Cmpd 625]
50 | < 10 | Cc1nc(N2CCC3(CCN(c4ccc5c(C)nn(CC(F)F)c5n4)CC3)C2)cc(C(F)(F)F)n1 [Cmpd 626]
51 | 10 to 50 | Cc1nc(N2CC3(CCN(c4ncc5cnn(C(C)(C)C)c5n4)C3)C2)cc(C(F)(F)F)n1 [Cmpd 629]
52 | 10 to 50 | Cc1nc(N2CCC3(CCN(c4cc5c(cn4)c(C)nn5CC(F)F)CC3)C2)cc(C(F)(F)F)n1 [Cmpd 630]
53 | 10 to 50 | Cc1nc(N2CC3(CCN(c4cc5c(cn4)cnn5CC(F)F)C3)C2)cc(C(F)(F)F)n1 [Cmpd 631]
54 | < 10 | Cc1nc(N2CC3(CCN(c4cc5c(cn4)cnn5CC(F)F)CC3)C2)cc(C(F)(F)F)n1 [Cmpd 632]
55 | < 10 | Cc1nc(N2CCC3(CCN(c4cc5c(cn4)cnn5CC(F)F)CC3)C2)cc(C(F)(F)F)n1 [Cmpd 633]

Same assay, conditions: activation of GCase, EC50 ranges

Row | SMILES | EC50 [µM]
56 | Cc1nc(N2CC3(CCN(c4cc5c(cn4)cnn5CC(F)F)CC3)CC2=O)cc(C(F)(F)F)n1 [Cmpd 634] | < 10
57 | FC(F)Cn1ncc2ncc(N3CCC4(C3)CN(c3ccnc(C(F)(F)F)c3)C4)cc21 [Cmpd 635] | < 10
58 | Cc1cc(N2CC3(CCN(c4ncc5c(C)nn(CC(F)F)c5n4)C3)C2)nc(C)n1 [Cmpd 641] | 10 to 50
59 | Cc1cc(N2CC3(CCN(c4ncc5cnn(CC(F)F)c5n4)C3)C2)nc(C)n1 [Cmpd 642] | 10 to 50
60 | Cc1cc(N2CC3(CCN(c4ncc5cnn(C6COC6)c5n4)C3)C2)nc(C)n1 [Cmpd 643] | 10 to 50
61 | Cc1cc(N2CC3(CCN(c4ncc5c(C)nn(C6COC6)c5n4)C3)C2)nc(C)n1 [Cmpd 644] | 10 to 50
62 | Cc1cc(N2CC3(CCN(c4cnc5c(C)nn(C6COC6)c5n4)C3)C2)nc(C)n1 [Cmpd 645] | 10 to 50
63 | Cc1cc(N2CC3(CCN(c4cnc5cnn(C6COC6)c5n4)C3)C2)nc(C)n1 [Cmpd 646] | 10 to 50

Now from value to compound:

Row | EC50 [µM] | SMILES
64 | < 10 | Cc1nc(N2CC3(CCN(c4cnc5cnn(CC(F)F)c5c4)C3)C2)cc(C(F)(F)F)n1 [Cmpd 636]
65 | 10 to 50 | Cc1nc(N2CC3(CCN(c4ccc5nccn5n4)C3)C2)cc(C(F)(F)F)n1 [Cmpd 637]
66 | 10 to 50 | Cc1cn2nc(N3CCC4(CN(c5cc(C(F)(F)F)nc(C)n5)C4)C3)ccc2n1 [Cmpd 638]
67 | 10 to 50 | Cc1cc(N2CC3(CCN(c4cnc5cnn(CC(F)F)c5n4)C3)C2)nc(C)n1 [Cmpd 639]
68 | 10 to 50 | Cc1cc(N2CC3(CCN(c4cnc5c(C)nn(CC(F)F)c5n4)C3)C2)nc(C)n1 [Cmpd 640]
69 | 10 to 50 | Cc1nc(N2CC3(CCN(c4ncc5cnn(C)c5n4)C3)C2)cc(C(F)(F)F)n1 [Cmpd 647]
70 | < 10 | Cc1nc(N2CC3(CCN(c4ncc5c(C)nn(C)c5n4)C3)C2)cc(C(F)(F)F)n1 [Cmpd 648]
